# Reference: a melting point compilation (Tetko et al.; mined from patent text by program, amines drawn as free bases though some values may be those of a salt)
row,melting point,SMILES
1,126 °C,COCC(=O)N[C@H]1CC[C@H](CCN2CCN(c3nccc4c3OCC4)CC2)CC1
2,136 to 139 °C,COc1c(Cl)cc(C(C)(C)N2CC(C)=C(c3ccccc3)C2=O)cc1Cl
3,102 to 106 °C,CC(C)C[C@@H](C#N)NC(=O)[C@@H]1CCCC[C@@H]1NC(=O)c1cc2ccccc2n1CC(C)(C)O
4,83 to 85 °C,NCc1ccc2c(c1)N(C1CCN(CCc3ccc(F)cc3)CC1)CC2
5,89 to 90 °C,CCOC(=O)Cn1c(=S)c2cc(Cl)ccc2n(Cc2ccc(Br)cc2F)c1=O
6,204 °C,Cc1c(O)c(C)c(Cc2cc(C(C)(C)C)c(O)c(C(C)(C)C)c2)c(C)c1Cc1cc(C(C)(C)C)c(O)c(C(C)(C)C)c1
7,94 to 103 °C,CC(C)(C)NC(=O)[C@@H]1CCCN1C(=O)[C@@H](O)[C@H](Cc1ccccc1)NC(=O)[C@H](CC(N)=O)NC(=O)COC1CCN(Cc2ccccc2)CC1
8,167 to 170 °C,CCOC(=O)c1ccc(C=C(CCCc2ccc(C(=O)O)cc2)Cn2ccnc2)cc1
9,207 to 208 °C,O=C(O)c1cc(-c2ccc(OCc3ccccc3)cc2)nn1Cc1ccccc1
10,94 to 96 °C,COc1ccc(N2CCN(c3c(C)c(C)c4c(c3C)C(CN3CCCC3)C(C)(C)O4)CC2)cc1 (configuration not stated)
11,148 to 150 °C,CC(C)(C)c1cc(Cn2c(=S)sc3ccccc32)cc(C(C)(C)C)c1O
12,211 to 213 °C,Cc1cc(C)c2[nH]c(=O)c(O)cc(=O)c2c1
13,86 to 90 °C,COc1cc(-c2cnn3c(-c4cccc(NC(=O)CC(C)C)c4)ccnc23)cc(OC)c1OC
14,116 °C,CCN(CC)C(=O)c1cc2ccccc2c(-c2cccc(Cl)c2)n1
15,238 to 240 °C,CCCCCCC(C(=O)O)n1cnc(NC(=O)c2cccc(O)c2S(=O)(=O)O)c1 (configuration not stated)
16,168 to 170 °C,CCOC(=O)c1ncn(-c2ccn(C)n2)c1N
17,123 to 125 °C,Cc1nn(-c2cc(OS(C)(=O)=O)c(Cl)cc2F)c(C)c1C
18,> 290 °C,COc1ccc2[nH]cc(C3=C(c4c[nH]c5ccc(OC)cc45)C(=O)N(C)C3=O)c2c1
19,155 to 157 °C,Cc1cc(-c2cc3c(OC[C@@H](O)CN4CCC(c5ccc6ccccc6c5)CC4)cccc3o2)nn1C
20,287 to 288 °C,COc1cc(NC(C)=O)ccc1C=NNC(=N)NN=Cc1ccc(NC(C)=O)cc1OC
21,178 to 180 °C,COc1cc(C(=O)NC2CC(C)(C)N(C)C(C)(C)C2)ccc1-c1nc2cc(Cl)c(Cl)cc2n1C
22,69 °C,COC(=O)CCCOc1ccc(C=O)cc1OC

row,melting point,SMILES
1,129 to 130 °C,CCCOC(=O)C(Cc1ccccc1)(Cn1cncn1)c1ccccc1OC (configuration not stated)
2,175 °C,CCN(CC)C(=O)OCC1CN(C(=O)c2cc(OC)c(OC)c(OC)c2)CCN1C(=S)c1cc(OC)c(OC)c(OC)c1 (configuration not stated)
3,49 to 50 °C,CCCCCCCCCCCCCCOc1ccc(OCc2ccccc2)c(C(=O)N(CC(=O)OCC)CC(=O)OCC)c1
4,124 °C,c1cnc(N2CCN(CCCCn3cccn3)CC2)nc1
5,150 to 151 °C,Cc1cc2c(-c3ccccc3)c(COS(C)(=O)=O)n(C)c(=O)c2cc1C
6,138 to 140 °C,COc1ccc2c(c1)S(=O)(=O)N(C(OC(=O)c1sccc1Cl)C(C)C)C2=O (configuration not stated)
7,180 to 182 °C,CCN(CC)c1ccc(C(=O)C#Cc2ccncn2)cc1
8,54 to 56 °C,CC1CC(=O)NN=C1c1ccc(NC(=O)CCNCC(O)COc2ccc(CCOCC3CC3)cc2)cc1 (configuration not stated)
9,188 to 190 °C,CC(C)(CO)COc1ccc(-n2cc(C(=O)O)cn2)cc1C#N
10,> 250 °C,Cn1ncc(C(=O)NC2COC2)c1C(=O)Nc1ccn2nc(-c3ccccc3)nc2c1
11,206 to 208 °C,O=C1C=C(O[C@@H]2c3cc([N+](=O)[O-])ccc3OC(CF)(CF)[C@H]2O)CC1 (relative stereo)
12,98 °C,COc1ccc(-c2cc(Cl)cc3c2NC(CN)CO3)c(C)c1 (configuration not stated)
13,124 °C,COc1cc(-c2ccc(C(C)C)cc2)cc2oc(=O)c(Cl)c(C)c12
14,90 to 92 °C,CC1(C)Cc2cc(OCCO)c3c(c2C(c2ccccc2)=N1)CC(C)(C)O3
15,171 to 172 °C,CCOC(=O)c1cnn(CC(O)c2ccccc2)c1NC(=S)NC(=O)c1ccccc1 (configuration not stated)
16,182 to 184 °C,CCCc1nn(C)c2c(=O)n(CCNc3ccc(C(C)=O)cc3)c(-c3ccc(OC)c(OC)c3)nc12
17,78 to 82 °C,Cc1ccc2c3c(ccc2n1)OC[C@H](CN1CCN(c2ccc4ccccc4n2)C[C@@H]1C)O3
18,206 to 207 °C,CCCCn1nc2c(N)nc3ccccc3c2c1CCCS(=O)(=O)c1ccccc1
19,184 to 186 °C,CN1C(=O)C2(COc3cc4c(cc32)OCCO4)c2c(C(=O)Oc3ccccc3)cccc21 (configuration not stated)
20,156 to 158 °C,CC(=O)OCc1ccc2oc(=O)c(C(=O)Oc3ccccc3I)cc2c1
21,149 to 150 °C,COc1nc(C(F)(F)F)cc(=O)n1-c1cc(OCCON=C(C)C)c(Br)cc1F

# Continued, molecule first:
row,SMILES,melting point
1,Cc1nc2cccnc2nc1S(=O)Cc1ccccn1 (configuration not stated),120 to 125 °C
2,OCC#CC1=Cc2ccccc2Sc2ccc(Cl)cc21,111 to 113 °C
3,CCCCCCCCCCOc1ccc(-c2ccc(C(=O)O)cc2)cc1,246 to 250 °C
4,O=C1C(Cc2ccncc2)c2ccccc2N1N1CCOCC1 (configuration not stated),108 to 110 °C
5,O=C(Nc1ccccc1F)c1ccccn1,112 to 115 °C
6,Cc1sc(C(=O)OCc2ccccc2)cc1NC(=O)NCc1ccccc1,208 to 209 °C
7,Cc1cnc2c(NC(=O)c3c(Cl)cccc3Cl)cccc2c1-n1ccnc1,224 to 228 °C
8,C#CCOc1cc(N)c(F)cc1Cl,61 to 61.5 °C
9,CCC(=O)Nc1ccccc1C(F)(F)F,86 °C
10,Cn1nc(-c2nc(C#CCO)c(Cl)cc2F)c(Cl)c1OC(F)F,92 to 94 °C
11,OCC1=C(c2cc3ccccc3s2)N2CCN=C2S1,138 to 140 °C
12,C[C@H](NC(=O)c1ccc[nH]1)C(=O)NC(C=O)CC(=O)O (some centres not stated),96 to 100 °C
13,CC(C)(O)[C@H](NC(=O)C(Cl)(Cl)Cl)c1ccccc1,97 °C
14,COc1ccc(OCc2ccc(=O)n(Cc3ccc(Cl)cc3)c2)cc1,114 °C
15,Cc1nc(N)ccc1-c1ccncc1,207 to 209 °C
16,CCCCC1(N(C)C)CCC(c2[nH]c3ccccc3c2CCC)CC1 (configuration not stated),127 to 130 °C
17,Cc1cc2nnc(C)n2nc1-c1ccc(C#N)cc1,242 to 244 °C
18,Cc1ccc(Cc2nc3c(nnn3C(C)CCCc3ccccc3)c(=O)[nH]2)cc1 (configuration not stated),130 °C
19,Nc1ccc(-c2noc(-c3cnn4c(C(F)F)cc(-c5ccc(C(F)(F)F)c(Cl)c5)nc34)n2)cn1,252 °C
20,O=C1NCN(c2ccccc2)C12CCCCC2,193 to 195 °C
21,N#CCNC(=O)C(Sc1nc2cc(Cl)ccc2s1)c1ccccc1 (configuration not stated),167 to 169 °C
22,N#CC1CC2(c3ccccc3)SC13c1ccccc1CCN3C2=O (configuration not stated),225 to 226 °C
23,CCOC(=O)c1ncn2c1CN(C)C(=O)c1cc(C#N)ccc1-2,184 °C
24,c1nnc(N2CCN(Cc3ccc4c(c3)OCO4)CC2)s1,111 to 112 °C
25,COc1nc(C(Br)Br)c([N+](=O)[O-])cc1C,58.7 to 61.2 °C
26,CN1CC[C@]2(c3ccccc3)CCCC[C@@]2(O)C1 (relative stereo),84 to 87 °C
27,CCc1c2c(nn1C)c(N)nc1ccccc12,257 to 259 °C

row,SMILES,melting point
1,Cc1c(-c2ccc(F)cc2)oc2c(-c3ccc(F)cc3)c(-c3ccc(S(C)(=O)=O)cc3)nn12,257 to 259 °C
2,COc1ccc(-c2[nH]nc3c2C(=O)c2c(NC(=O)NNC(=O)c4ccccc4N)cccc2-3)cc1,257 °C
3,Cc1cccc(-c2ccc(S(=O)(=O)N3c4ccccc4CC3C(=O)NCc3ccc(CC(=O)O)cc3)cc2)c1 (configuration not stated),118 to 120 °C
4,O=S(=O)(c1scc(Br)c1Br)n1nnc2c(Br)cc(C(F)(F)F)cc21,192 to 195 °C
5,CS(=O)(=O)c1ccc(Br)cc1C(F)(F)F,110 to 112 °C
6,Cn1cnc2nc(-c3ccc(C(F)(F)F)cc3)nn2c1=S,270 to 272 °C
7,CC(CCC(=O)O)(c1ccc(OCc2ccc3ccccc3c2)cc1)c1ccc(OCc2ccc3ccccc3n2)cc1 (configuration not stated),64 to 68 °C
8,CCC12CCC3C4CCC(=O)C=C4CCC3C1=CC=C2c1ccccc1 (configuration not stated),191 °C
9,CC1(C)Oc2ccc(OC(F)(F)F)cc2[C@@H](N2Cc3cccnc3C2=O)[C@@H]1O (relative stereo),248 to 250 °C
10,O=C(NCCc1ccc(Cl)cc1)C1=C(NCCc2ccc(Cl)cc2)CS(=O)(=O)N(Cc2ccc(Cl)c(Cl)c2)c2ccccc21,119 to 121 °C
11,COC(=O)COc1ccc(N=C=O)cc1,50 to 53 °C
12,O=C(O)c1c(C=C2CC2)c2ccccc2n1Cc1cccc(C(F)(F)F)c1,148 to 150 °C
13,O=C(O)c1cc([N+](=O)[O-])cc2ccc(-c3ccccc3)nc12,268 to 269 °C
14,NN1C=Nc2ccc(Cl)cc2C1(O)c1ccccc1 (configuration not stated),157 to 158 °C
15,O=C1c2cccc(Br)c2C(=O)N1CCCCCn1cncn1,102 to 104 °C
16,O=C(CC(=O)c1ccc(C(F)(F)F)cc1[N+](=O)[O-])c1ccc([N+](=O)[O-])cc1,139 to 140 °C
17,C=C(C)C(=O)Oc1ccc(S(=O)(=O)ON=C(C#N)c2cccs2)cc1,165 to 166 °C
18,Clc1nc(N2CCOCC2)c2nnn(C3CCOCC3)c2n1,142 °C
19,O=C1CCn2ncnc2N1,276 to 280 °C
20,C=CCN1C(=O)N(CC=C)[C@@H](C(=O)O)[C@H]1C(=O)O,161 to 163 °C
21,Cc1ccnc2c1C(=O)c1c(C)cc(=O)[nH]c1C2=O,258 to 261 °C
22,O=C(c1ccncc1)c1cc(Br)cc(Br)c1,89 to 92 °C
23,CCC12CC(O)C(O)(c3ccccc3)CC1CC(O)c1cc(O)ccc12 (configuration not stated),185 to 187 °C
24,Cc1ccc(Cl)cc1N1C(=O)CON(C)C1=S,100 to 102 °C
25,COc1ccc(Cn2c(C)nc3c(Cl)ncnc32)cc1,121 to 123 °C
26,Oc1ccc(-c2ccc3cc(O)nc-3o2)cc1,> 300 °C
27,Cc1cc(=O)c(-c2ccc(Oc3cccc(OC(F)(F)F)c3)cc2)c(C)[nH]1,244 to 246 °C
